Paper PMC11868595, “Safety, pharmacokinetics and efficacy of HA121-28 in patients with advanced solid tumors and RET fusion-positive non-small-cell lung cancer: a multicenter, open-label, single-arm phase 1/2 trial” (Signal Transduction and Targeted Therapy, 2025)

Test system: patients with advanced solid tumors
Assay: Phase 1 trial: adverse events (CTCAE), DLT and MTD
Type: in vivo, human
Experimental: The phase 1 trial was a two-part, multicenter, open-label, nonrandomized study to evaluate the safety and preliminary efficacy of HA121-28.
Safety, tolerability, and PK of HA121-28 was assessed in dose-escalation part. The single-patient accelerated titration was carried out at 25 mg and 50 mg; then, the dose escalation proceeded according to a “3 + 3” design in dose range of 100 to 800 mg. Escalation to a higher dose level was considered by the satisfactory review of safety results from the previous lower dose during the first cycle.
The dose-expansion part aims to further access the safety and efficacy of HA121-28 at the selected doses based on data from the dose-escalation part. The RP2D was determined by investigators in view of a thorough review of safety, PK, and efficacy results.
In phase 1 trial, during the dose-escalation part, patients first administered HA121-28 in a single ascending dose under the fasted state, then followed up for seven days. Then, patients received ascending doses of HA121-28 (q.d.) on a 21-day on and 7-day off treatment scheme for a 28-day cycle. For patients deemed beneficial from the treatment by investigators, treatment could remain until disease progression, or they discontinued from the study. In the dose-expansion part of phase 1, as well as phase 2, patients received HA121-28 (q.d.) at the selected doses on a 21-day on and 7-day off treatment scheme until disease progression, or they discontinued from the study.
Treatment-emergent adverse events (TEAEs) were documented during the entire study period. The predefined adverse event of special interest (AESI) was ≥ grade 3 prolonged QT interval. Tumor imaging was performed using contrast-enhanced computed tomography or magnetic resonance imaging at screening, Day 28 of the first cycle, then approximately every eight weeks till the end of the study for phase 1; in phase 2, imaging was scheduled at screening, and every eight weeks during the first 40 weeks, followed by every 12 weeks for the rest of the study period. RECIST 1.1 was used by the independent review committee or investigators for assessment of tumor response. After the original assessment, a repeated assessment was required around four weeks later to confirm a complete or partial response.
The primary endpoints of phase 1 were to investigate the MTD, dose-limiting toxicities, and the incidence and severity of TEAEs. Each TEAE was graded according to the Common Terminology Criteria for Adverse Events (CTCAE, version 5.0) and coded by Medical Dictionary for Regulatory Activities (MedDRA, version 21.0). The secondary endpoints included calculating PK parameters, assessing the ORR and DCR at the recommended dose by investigators as per RECIST 1.1. The exploratory endpoint was PFS.
If grade 2 or higher toxicity related to the study drug occurs in Groups 1 and 2 (as determined by the investigator), dose escalation will proceed using a 3+3 design starting from that dose level. If no DLT is observed at the 800 mg/d dose level after dose escalation, a meeting of investigators will be convened to decide whether to proceed with further dose escalation based on the available PK data, safety, and tolerability information.
5. Definition of DLT and MTD
The following events related to the study drug (including those that are definitely related, highly likely to be related, and possibly related):
(1) Grade 4 hematologic toxicity or grade 3 neutropenia accompanied by a fever of 38.5℃ or higher, or grade 3 thrombocytopenia accompanied by severe bleeding.
(2) Patients who discontinued the medication for more than 7 days due to unresolved toxicity reactions or who discontinued the medication more than twice due to toxicity […]
(3) In the context of supportive treatment, diarrhea of grade 2 lasting more than 7 days, or grade 3 diarrhea lasting more than 3 days.

[1] = Phase 1 Study, patient 5 with Grade 3 QTc prolongation
[2] = Phase 1 Study, patient 9 with Grade 3 QTc prolongation

COc1cc2c(Nc3ccc(Br)cc3F)ncnc2cc1OCCCCN(C)C.Cl.Cl [HA121-28, N-(4-bromo-2-fluorophenyl)-7-(4-(dimethylamino)butoxy)-6-methoxy quinazolin-4-amine dihydrochloride]
Serious TEAE: Headache (Phase 1, 800 mg (N=3)): 0 No. (%) | Serious TEAE: Hemoptysis (Phase 1, 800 mg (N=3)): 0 No. (%) | Serious TEAE: Hydronephrosis (Phase 1, 800 mg (N=3)): 0 No. (%) | Serious TEAE: Hypertension (Phase 1, 800 mg (N=3)): 0 No. (%) | Serious TEAE: Hypoalbuminemia (Phase 1, 800 mg (N=3)): 0 No. (%) | Serious TEAE: Intestinal obstruction (Phase 1, 800 mg (N=3)): 0 No. (%) | Serious TEAE: Intra-abdominal fluid collection (Phase 1, 800 mg (N=3)): 0 No. (%) | Serious TEAE: Intracranial tumor hemorrhage (Phase 1, 800 mg (N=3)): 0 No. (%) | Serious TEAE: Liver injury (Phase 1, 800 mg (N=3)): 0 No. (%) | Serious TEAE: Lung adenocarcinoma (Phase 1, 800 mg (N=3)): 0 No. (%) | Serious TEAE: Malignant neoplasm progression (Phase 1, 800 mg (N=3)): 0 No. (%) | Serious TEAE: Multiple organ dysfunction syndrome (Phase 1, 800 mg (N=3)): 0 No. (%) | Serious TEAE: Nausea (Phase 1, 800 mg (N=3)): 0 No. (%) | Serious TEAE: Nephrolithiasis (Phase 1, 800 mg (N=3)): 0 No. (%) | Serious TEAE: Platelet counts decreased (Phase 1, 800 mg (N=3)): 0 No. (%) | Serious TEAE: Pleural effusion (Phase 1, 800 mg (N=3)): 0 No. (%) | Serious TEAE: Pneumonia (Phase 1, 800 mg (N=3)): 0 No. (%) | Serious TEAE: Pneumonitis (Phase 1, 800 mg (N=3)): 0 No. (%) | Serious TEAE: Prolonged QT interval (Phase 1, 800 mg (N=3)): 0 No. (%) | Serious TEAE: Pulmonary embolism (Phase 1, 800 mg (N=3)): 0 No. (%) | Serious TEAE: Pyrexia (Phase 1, 800 mg (N=3)): 0 No. (%) | Serious TEAE: Rash (Phase 1, 800 mg (N=3)): 0 No. (%) | Serious TEAE: Rectal hemorrhage (Phase 1, 800 mg (N=3)): 0 No. (%) | Serious TEAE: Respiratory failure (Phase 1, 800 mg (N=3)): 0 No. (%) | Serious TEAE: Seizure (Phase 1, 800 mg (N=3)): 0 No. (%) | Serious TEAE: Septic shock (Phase 1, 800 mg (N=3)): 0 No. (%) | Serious TEAE: Sudden cardiac arrest (Phase 1, 800 mg (N=3)): 0 No. (%) | Serious TEAE: Sudden death (Phase 1, 800 mg (N=3)): 0 No. (%) | Serious TEAE: Upper respiratory tract infection (Phase 1, 800 mg (N=3)): 0 No. (%) | Serious TEAE: Ventricular tachycardia (Phase 1, 800 mg (N=3)): 0 No. (%) | Serious TEAE: Vomiting (Phase 1, 800 mg (N=3)): 0 No. (%) | Serious TEAE: Weight loss (Phase 1, 800 mg (N=3)): 1 (33.3) No. (%) | Serious TRAE: ALT increased (Phase 1, 800 mg (N=3)): 0 No. (%) | Serious TRAE: AST increased (Phase 1, 800 mg (N=3)): 0 No. (%) | Serious TRAE: Abdominal Pain (Phase 1, 800 mg (N=3)): 0 No. (%) | Serious TRAE: Abdominal distension (Phase 1, 800 mg (N=3)): 0 No. (%) | Serious TRAE: Acute cholecystitis (Phase 1, 800 mg (N=3)): 0 No. (%) | Serious TRAE: Acute pancreatitis (Phase 1, 800 mg (N=3)): 0 No. (%) | Serious TRAE: Anal abscess (Phase 1, 800 mg (N=3)): 0 No. (%) | Serious TRAE: Any (Phase 1, 800 mg (N=3)): 1 (33.3) No. (%) | Serious TRAE: Aortic intramural hematoma (Phase 1, 800 mg (N=3)): 0 No. (%) | Serious TRAE: Arrhythmia (Phase 1, 800 mg (N=3)): 0 No. (%) | Serious TRAE: Blood bilirubin increased (Phase 1, 800 mg (N=3)): 0 No. (%) | Serious TRAE: Blood creatinine increased (Phase 1, 800 mg (N=3)): 0 No. (%) | Serious TRAE: COVID-19 (Phase 1, 800 mg (N=3)): 0 No. (%) | Serious TRAE: Cardiac tamponade (Phase 1, 800 mg (N=3)): 0 No. (%) | Serious TRAE: Coronary artery atherosclerosis (Phase 1, 800 mg (N=3)): 0 No. (%) | Serious TRAE: Death (Phase 1, 800 mg (N=3)): 0 No. (%) | Serious TRAE: Diarrhea (Phase 1, 800 mg (N=3)): 0 No. (%) | Serious TRAE: Drug eruption (Phase 1, 800 mg (N=3)): 0 No. (%) | Serious TRAE: Dyspnea (Phase 1, 800 mg (N=3)): 0 No. (%) | Serious TRAE: Embolism (Phase 1, 800 mg (N=3)): 0 No. (%) | Serious TRAE: Erythema multiforme (Phase 1, 800 mg (N=3)): 0 No. (%) | Serious TRAE: Headache (Phase 1, 800 mg (N=3)): 0 No. (%) | Serious TRAE: Hemoptysis (Phase 1, 800 mg (N=3)): 0 No. (%) | Serious TRAE: Hydronephrosis (Phase 1, 800 mg (N=3)): 0 No. (%) | Serious TRAE: Hypertension (Phase 1, 800 mg (N=3)): 0 No. (%) | Serious TRAE: Hypoalbuminemia (Phase 1, 800 mg (N=3)): 0 No. (%) | Serious TRAE: Intestinal obstruction (Phase 1, 800 mg (N=3)): 0 No. (%) | Serious TRAE: Intra-abdominal fluid collection (Phase 1, 800 mg (N=3)): 0 No. (%) | Serious TRAE: Intracranial tumor hemorrhage (Phase 1, 800 mg (N=3)): 0 No. (%) | Serious TRAE: Liver injury (Phase 1, 800 mg (N=3)): 0 No. (%) | Serious TRAE: Lung adenocarcinoma (Phase 1, 800 mg (N=3)): 0 No. (%) | Serious TRAE: Malignant neoplasm progression (Phase 1, 800 mg (N=3)): 0 No. (%) | Serious TRAE: Multiple organ dysfunction syndrome (Phase 1, 800 mg (N=3)): 0 No. (%) | Serious TRAE: Nausea (Phase 1, 800 mg (N=3)): 0 No. (%) | Serious TRAE: Nephrolithiasis (Phase 1, 800 mg (N=3)): 0 No. (%) | Serious TRAE: Platelet counts decreased (Phase 1, 800 mg (N=3)): 0 No. (%) | Serious TRAE: Pleural effusion (Phase 1, 800 mg (N=3)): 0 No. (%) | Serious TRAE: Pneumonia (Phase 1, 800 mg (N=3)): 0 No. (%) | Serious TRAE: Pneumonitis (Phase 1, 800 mg (N=3)): 0 No. (%) | Serious TRAE: Prolonged QT interval (Phase 1, 800 mg (N=3)): 0 No. (%) | Serious TRAE: Pulmonary embolism (Phase 1, 800 mg (N=3)): 0 No. (%) | Serious TRAE: Pyrexia (Phase 1, 800 mg (N=3)): 0 No. (%) | Serious TRAE: Rash (Phase 1, 800 mg (N=3)): 0 No. (%) | Serious TRAE: Rectal hemorrhage (Phase 1, 800 mg (N=3)): 0 No. (%) | Serious TRAE: Respiratory failure (Phase 1, 800 mg (N=3)): 0 No. (%) | Serious TRAE: Seizure (Phase 1, 800 mg (N=3)): 0 No. (%) | Serious TRAE: Septic shock (Phase 1, 800 mg (N=3)): 0 No. (%) | Serious TRAE: Sudden cardiac arrest (Phase 1, 800 mg (N=3)): 0 No. (%) | Serious TRAE: Sudden death (Phase 1, 800 mg (N=3)): 0 No. (%) | Serious TRAE: Upper respiratory tract infection (Phase 1, 800 mg (N=3)): 0 No. (%) | Serious TRAE: Ventricular tachycardia (Phase 1, 800 mg (N=3)): 0 No. (%) | Serious TRAE: Vomiting (Phase 1, 800 mg (N=3)): 0 No. (%) | Serious TRAE: Weight loss (Phase 1, 800 mg (N=3)): 1 (33.3) No. (%) | Grade of cardiac TEAE: Cardiopalmus (Phase 1 Study, patient 1 with Grade 3 QTc prolongation): 2 | Grade of cardiac TEAE: Bradycardia (Phase 1 Study, patient 2 with Grade 3 QTc prolongation): 1 | Grade of cardiac TEAE: nodal tachycardia (Phase 1 Study, patient 3 with Grade 3 QTc prolongation): 1 | Grade of cardiac TEAE: T wave anomaly (Phase 1 Study, patient 4 with Grade 3 QTc prolongation): 1 | Grade of cardiac TEAE: Complete right bundle branch block [1]: 1 | Grade of cardiac TEAE: Incomplete right bundle branch block [1]: 1 | Grade of cardiac TEAE: sinus bradycardia [1]: 1 | Grade of cardiac TEAE: T wave anomaly (Phase 1 Study, patient 6 with Grade 3 QTc prolongation): 1 | Grade of cardiac TEAE: Ventricular arrhythmia (Phase 1 Study, patient 7 with Grade 3 QTc prolongation): 4 | Grade of cardiac TEAE: ST-T wave changes (Phase 1 Study, patient 8 with Grade 3 QTc prolongation): 1 | Grade of cardiac TEAE: Abnormal Q wave of III and aVF leads [2]: 2 | Grade of cardiac TEAE: Atrial premature beats [2]: 1 | Grade of cardiac TEAE: ST-T wave changes [2]: 1 | Grade of cardiac TEAE: T wave anomaly [2]: 1 | maximum tolerated dose (MTD) (once daily, phase 1 dose escalation): 600 mg | AESI leading to dose interruption (phase 1): 10.6% | AESI leading to permanent discontinuation (phase 1): 0.6% | grade ≥ 3 TEAE diarrhea (phase 1): 8.1% | grade ≥ 3 TEAE prolonged QT interval (AESI) (phase 1): 15.0% | grade ≥ 3 TEAE rash (phase 1): 5.6% | patients with at least one TEAE (phase 1): 99.4% | patients with at least one TRAE (phase 1): 98.1% | patients with grade ≥ 3 TEAEs (phase 1): 48.8% | patients with grade ≥3 TRAEs (phase 1): 40.0% | patients with treatment-related SAEs (phase 1): 14.4% | treatment-related SAE rash (phase 1): 2.5% | TEAE diarrhea (phase 1, all grades): 78.8% | TEAE prolonged QT interval (phase 1, all grades): 50.0% | TEAE rash (phase 1, all grades): 57.5% | recommended phase 2 dose (RP2D) (q.d., 21-day on/7-day off): 450 mg
